Like-named read-outs stand apart in the source and are kept apart here.
Target: α-glucosidase (Saccharomyces cerevisiae, UniProt P53341)
Assay: biochemical
[1] = read-out: α-glucosidase inhibitory activity IC50
[2] = positive control 1-deoxynojirimycin, DMSO blank, read-out: α-glucosidase inhibitory activity IC50

Chain of α-glucosidase (P53341 whole entry): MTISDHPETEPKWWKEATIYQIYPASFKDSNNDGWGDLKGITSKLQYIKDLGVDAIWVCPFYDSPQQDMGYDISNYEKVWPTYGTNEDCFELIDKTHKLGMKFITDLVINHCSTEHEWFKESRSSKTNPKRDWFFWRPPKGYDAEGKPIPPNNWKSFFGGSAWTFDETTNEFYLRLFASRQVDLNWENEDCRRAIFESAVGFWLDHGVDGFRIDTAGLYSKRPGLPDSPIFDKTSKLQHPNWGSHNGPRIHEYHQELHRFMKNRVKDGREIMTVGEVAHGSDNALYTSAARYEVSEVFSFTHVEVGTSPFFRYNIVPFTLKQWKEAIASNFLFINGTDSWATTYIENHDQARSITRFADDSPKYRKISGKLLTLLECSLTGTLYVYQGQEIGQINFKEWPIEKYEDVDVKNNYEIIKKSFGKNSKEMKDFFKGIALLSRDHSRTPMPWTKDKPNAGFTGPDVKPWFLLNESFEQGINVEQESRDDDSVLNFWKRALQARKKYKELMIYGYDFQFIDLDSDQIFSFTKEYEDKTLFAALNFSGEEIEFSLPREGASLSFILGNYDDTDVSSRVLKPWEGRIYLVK

SMILES	IC50 [1] [µM]	further results
CCC(C)CC(C)C=C(C)C1OC(c2c(O)c(-c3ccccc3)cn(C)c2=O)CCC1C (stereo not drawn) [Compound 1, Sambutoxin A]		IC50: 12.6 ± 0.9 µM
CCC(C)CC(C)C=C(C)C1OC(c2c(O)c(-c3ccc(O)cc3)cn(C)c2=O)CC=C1C (stereo not drawn) [Compound 2, Sambutoxin B]		IC50: 37.4 ± 1.4 µM
CC[C@H](C)C[C@@H](C)/C=C(\C)[C@@H]1O[C@H](c2c(O)c(-c3ccc(O)cc3)cn(C)c2=O)CC[C@H]1C [Compound 3, (–)-sambutoxin]		IC50: 16.9 ± 0.6 µM
C/C=C/[C@@H]1[C@H]2C[C@@H](C)CC[C@@H]2C(C)=C[C@H]1C(=O)c1c(O)c(-c2ccc(O)cc2)c[nH]c1=O [Compound 4, ilicicolin H]	16.5 ± 0.7	
C/C=C/[C@@H]1Oc2c(-c3ccccc3)c[nH]c(=O)c2[C@@H]2[C@H]1CCC[C@H]2C [Compound 5, deoxyleporin B]	57.3 ± 1.3	
C/C=C/[C@@H]1Oc2c(-c3ccccc3)cn(O)c(=O)c2[C@@H]2[C@H]1CCC[C@H]2C [Compound 6, leporine B]	> 100	
CCC(C)C(=O)OC1(C)C(=O)C(C)=C(OC)C1O (stereo not drawn) [Compound 7, Talaketides A]	> 100	
COC1=CC(=O)C(C)(O)C1(O)C(C)=O (stereo not drawn) [Compound 8, Talaketides B]	> 100	
CCC(C)C(=O)OC1(C)C(=O)C(C)=C(OC)CC1OC (stereo not drawn) [Compound 9, Talaketides C]	> 100	
COC1=CC(=O)C(C)(O)C(O)C1C (stereo not drawn) [Compound 10, Talaketides D]	> 100	
COC1=CC(=O)C(C)(O)C(O)C1C (stereo not drawn) [Compound 11, Talaketides E]		IC50 [2]: > 100 µM
COC1=CC(=O)C(C)(O)C(O)C1C (stereo not drawn) [Compound 12, Talaketides F]		IC50 [2]: > 100 µM
